Results as given in ChEMBL document CHEMBL1201862, “PubChem BioAssay data set” (2004).
The source made the active and inactive calls.

Tests used:
[1] = molecular target: DNA dC->dU-editing enzyme APOBEC-3G (Homo sapiens, UniProt Q9HC16); test: Dose Response confirmation of small molecule APOBEC3G DNA Deaminase Inhibitors via a fluorescence-based single-stranded DNA deaminase assay. [Related pubchem assays (depositor defined):AID493012, AID493028]; format: functional
[2] = molecular target: DNA dC->dU-editing enzyme APOBEC-3A (Homo sapiens, UniProt P31941); test: A3A deaminase inhibition for selectivity – biochemical, dose response (AID 504722); format: functional
Estrogen receptor = molecular target: T1, Estrogen receptor (Homo sapiens, UniProt P03372);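 further: potency for inhibiting coactivator peptide recruitment to the receptor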
T1 sequence (P03372 whole entry): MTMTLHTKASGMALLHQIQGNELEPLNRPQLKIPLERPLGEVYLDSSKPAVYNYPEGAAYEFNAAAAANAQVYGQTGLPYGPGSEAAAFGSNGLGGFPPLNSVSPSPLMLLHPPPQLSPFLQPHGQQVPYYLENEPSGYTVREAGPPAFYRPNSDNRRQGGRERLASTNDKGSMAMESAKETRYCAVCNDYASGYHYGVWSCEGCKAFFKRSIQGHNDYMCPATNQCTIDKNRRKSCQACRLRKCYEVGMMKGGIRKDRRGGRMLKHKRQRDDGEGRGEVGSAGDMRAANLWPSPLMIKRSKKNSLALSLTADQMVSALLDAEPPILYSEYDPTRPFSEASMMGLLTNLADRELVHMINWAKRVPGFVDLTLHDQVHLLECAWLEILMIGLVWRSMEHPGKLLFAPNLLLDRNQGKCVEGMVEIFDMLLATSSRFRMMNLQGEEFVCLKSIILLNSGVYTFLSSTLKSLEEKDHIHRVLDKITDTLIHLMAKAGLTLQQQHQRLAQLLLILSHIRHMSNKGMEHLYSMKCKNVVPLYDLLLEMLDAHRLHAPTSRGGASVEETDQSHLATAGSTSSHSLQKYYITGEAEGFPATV

[3] = molecular target: T2, Endoribonuclease toxin MazF (Escherichia coli K-12, UniProt P0AE70); test: activation of MazEF endoribonuclease cleavage – biochemical, fluorescence, single-stranded RNA substrate, uHTS hits, dose response (AID 588481); format: functional
T2 sequence (P0AE70 whole entry): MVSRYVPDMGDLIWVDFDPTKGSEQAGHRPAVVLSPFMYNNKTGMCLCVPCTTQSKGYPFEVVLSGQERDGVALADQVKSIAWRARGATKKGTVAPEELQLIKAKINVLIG

[4] = molecular target: T2, Endoribonuclease toxin MazF; test: substrate-only fluorescence increase artefacts – biochemical, single-stranded RNase substrate, counter-screen for MazEF activator project, dose response (AID 588502); format: functional
Leucine aminopeptidase = molecular target: T3, Leucine aminopeptidase (Plasmodium falciparum 3D7, UniProt Q8IL11); test: P. falciparum M17LAP inhibitors, primary screen, biochemical, fluorogenic H-Leu-NHMec substrate, 1536-well (AID 1619); format: functional
T3 sequence (Q8IL11 whole entry): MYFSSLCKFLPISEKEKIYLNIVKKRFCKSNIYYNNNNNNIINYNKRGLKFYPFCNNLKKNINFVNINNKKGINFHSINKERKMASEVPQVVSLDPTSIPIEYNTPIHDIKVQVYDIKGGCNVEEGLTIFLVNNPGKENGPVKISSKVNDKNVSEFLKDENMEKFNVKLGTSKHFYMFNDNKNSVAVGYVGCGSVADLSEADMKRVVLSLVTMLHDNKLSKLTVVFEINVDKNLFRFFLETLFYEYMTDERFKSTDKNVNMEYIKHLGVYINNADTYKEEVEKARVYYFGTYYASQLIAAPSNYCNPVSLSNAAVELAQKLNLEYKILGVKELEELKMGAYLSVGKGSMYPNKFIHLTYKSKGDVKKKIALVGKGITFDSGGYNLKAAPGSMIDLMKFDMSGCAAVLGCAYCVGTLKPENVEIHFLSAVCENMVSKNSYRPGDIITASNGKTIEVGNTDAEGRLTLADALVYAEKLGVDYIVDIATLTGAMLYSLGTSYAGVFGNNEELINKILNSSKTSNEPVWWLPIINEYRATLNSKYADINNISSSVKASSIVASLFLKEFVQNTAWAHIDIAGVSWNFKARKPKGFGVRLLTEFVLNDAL

[5] = molecular target: Voltage-dependent T-type calcium channel subunit alpha-1H (Homo sapiens, UniProt O95180); format: functional;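 further: channel activity triggered by adding a high calcium stimulation buffer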
Aminopeptidase N = molecular target: T4, Aminopeptidase N (Plasmodium falciparum FcB1/Columbia, UniProt O96935); test: malaria alanyl aminopeptidase activity blockers – biochemical, fluorogenic H-Leu-NHMec substrate, 1536-well (AID 1445); parameters: species or system Plasmodium falciparum 3D7, 3D7
T4 sequence (O96935 whole entry): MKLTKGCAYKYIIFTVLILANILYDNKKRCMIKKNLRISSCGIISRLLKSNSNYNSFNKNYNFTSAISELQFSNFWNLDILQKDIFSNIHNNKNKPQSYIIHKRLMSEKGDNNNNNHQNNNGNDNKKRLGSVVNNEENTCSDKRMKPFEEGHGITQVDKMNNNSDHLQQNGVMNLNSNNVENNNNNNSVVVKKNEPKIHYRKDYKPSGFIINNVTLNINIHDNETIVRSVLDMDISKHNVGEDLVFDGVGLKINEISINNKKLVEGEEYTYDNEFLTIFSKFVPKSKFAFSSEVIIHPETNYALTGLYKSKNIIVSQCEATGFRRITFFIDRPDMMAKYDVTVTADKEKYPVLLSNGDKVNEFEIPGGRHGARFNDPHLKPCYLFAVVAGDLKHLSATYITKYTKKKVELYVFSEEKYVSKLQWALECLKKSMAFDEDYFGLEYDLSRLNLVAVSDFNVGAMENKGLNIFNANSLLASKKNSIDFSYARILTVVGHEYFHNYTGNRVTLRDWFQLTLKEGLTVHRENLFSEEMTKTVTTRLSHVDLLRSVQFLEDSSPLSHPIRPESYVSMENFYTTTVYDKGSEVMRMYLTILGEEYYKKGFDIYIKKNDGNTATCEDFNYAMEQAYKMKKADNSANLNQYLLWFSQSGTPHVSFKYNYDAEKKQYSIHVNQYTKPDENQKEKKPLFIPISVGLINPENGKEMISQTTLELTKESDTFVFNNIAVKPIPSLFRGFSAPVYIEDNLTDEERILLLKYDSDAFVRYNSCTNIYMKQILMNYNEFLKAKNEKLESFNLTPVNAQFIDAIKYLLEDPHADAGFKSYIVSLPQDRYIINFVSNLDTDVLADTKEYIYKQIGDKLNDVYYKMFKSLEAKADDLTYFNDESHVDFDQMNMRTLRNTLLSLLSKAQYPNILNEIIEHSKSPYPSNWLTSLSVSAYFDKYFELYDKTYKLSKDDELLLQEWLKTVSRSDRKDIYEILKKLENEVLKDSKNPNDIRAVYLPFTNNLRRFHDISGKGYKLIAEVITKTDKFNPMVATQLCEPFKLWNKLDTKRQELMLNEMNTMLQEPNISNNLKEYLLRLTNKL

[6] = molecular target: T5, Polyadenylate-binding protein 1 (Homo sapiens, UniProt P11940); test: MLLE binding blockers, Cy5 peptide tracer – biochemical, fluorescence polarization, Cy5-PAM2 peptide, secondary, miRNA deadenylation inhibitor project, dose response (AID 602260); format: functional; settings: read-out: IC50_Mean
[7] = molecular target: T5, Polyadenylate-binding protein 1; test: MLLE domain peptide-binding blockers, IC50 – biochemical, fluorescence polarization, FITC-PAM2 peptide, dose response (AID 602259); format: functional; settings: read-out: IC50_Mean
Fatty acid synthase [8] = molecular target: T6, Fatty acid synthase (Homo sapiens, UniProt P49327); test: inhibition of human FAS-TE enzyme activity – biochemical, endpoint fluorescence intensity, uHTS hits, dose response (AID 624327); format: functional;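 further: fluorescence from hydrolysis of an O-methyl fluorescein acyl ester substrate by the enzyme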
Fatty acid synthase [9] = molecular target: T6, Fatty acid synthase; test: inhibition of human FAS-TE enzyme activity – biochemical, kinetic fluorescence intensity, dose response (AID 624326); format: functional;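 further: rate of fluorescence rise from hydrolysis of a fluorogenic O-methyl fluorescein ester substrate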
[10] = Luminescence Cell-Based Dose Response HTS to Identify Activators of Luciferase Translation or Activity in H4 […] Cells. [Related pubchem assays: 1829 (Project Summary), 1814 (Primary HTS)]; format: functional
[11] = Luminescence Cell-Based Dose Confirmation HTS to Identify Activators of 5'UTR Stem-Loop Driven Alpha-Synuclein mRNA Translation in H4 Neuroglioblastoma Cells. [Related pubchem assays: 1829 (Project Summary), 1814 (Primary HTS)]; format: functional
H4 = test: Luminescence Cell-Based Dose Response HTS to Identify Activators of 5'UTR Stem-Loop Driven Prion Protein mRNA Translation in H4 Neuroglioblastoma Cells. [Related pubchem assays: 1829 (Project Summary), 1814 (Primary HTS)]; format: functional; settings: Homo sapiens
Nonstructural protein 1 = Nonstructural protein 1 (Influenza A virus, UniProt Q194T2); format: functional, Influenza A virus (A/California/07/2009(H1N1))
Chain of Nonstructural protein 1 (Q194T2 whole entry): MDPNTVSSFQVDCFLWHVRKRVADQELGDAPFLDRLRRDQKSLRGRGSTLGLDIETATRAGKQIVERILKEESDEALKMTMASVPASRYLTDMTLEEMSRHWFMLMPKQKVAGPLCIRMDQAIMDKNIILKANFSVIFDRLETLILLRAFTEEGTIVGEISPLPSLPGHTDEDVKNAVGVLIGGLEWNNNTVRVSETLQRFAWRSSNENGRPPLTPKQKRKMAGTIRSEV

Chain of Voltage-dependent T-type calcium channel subunit alpha-1H (O95180 whole entry): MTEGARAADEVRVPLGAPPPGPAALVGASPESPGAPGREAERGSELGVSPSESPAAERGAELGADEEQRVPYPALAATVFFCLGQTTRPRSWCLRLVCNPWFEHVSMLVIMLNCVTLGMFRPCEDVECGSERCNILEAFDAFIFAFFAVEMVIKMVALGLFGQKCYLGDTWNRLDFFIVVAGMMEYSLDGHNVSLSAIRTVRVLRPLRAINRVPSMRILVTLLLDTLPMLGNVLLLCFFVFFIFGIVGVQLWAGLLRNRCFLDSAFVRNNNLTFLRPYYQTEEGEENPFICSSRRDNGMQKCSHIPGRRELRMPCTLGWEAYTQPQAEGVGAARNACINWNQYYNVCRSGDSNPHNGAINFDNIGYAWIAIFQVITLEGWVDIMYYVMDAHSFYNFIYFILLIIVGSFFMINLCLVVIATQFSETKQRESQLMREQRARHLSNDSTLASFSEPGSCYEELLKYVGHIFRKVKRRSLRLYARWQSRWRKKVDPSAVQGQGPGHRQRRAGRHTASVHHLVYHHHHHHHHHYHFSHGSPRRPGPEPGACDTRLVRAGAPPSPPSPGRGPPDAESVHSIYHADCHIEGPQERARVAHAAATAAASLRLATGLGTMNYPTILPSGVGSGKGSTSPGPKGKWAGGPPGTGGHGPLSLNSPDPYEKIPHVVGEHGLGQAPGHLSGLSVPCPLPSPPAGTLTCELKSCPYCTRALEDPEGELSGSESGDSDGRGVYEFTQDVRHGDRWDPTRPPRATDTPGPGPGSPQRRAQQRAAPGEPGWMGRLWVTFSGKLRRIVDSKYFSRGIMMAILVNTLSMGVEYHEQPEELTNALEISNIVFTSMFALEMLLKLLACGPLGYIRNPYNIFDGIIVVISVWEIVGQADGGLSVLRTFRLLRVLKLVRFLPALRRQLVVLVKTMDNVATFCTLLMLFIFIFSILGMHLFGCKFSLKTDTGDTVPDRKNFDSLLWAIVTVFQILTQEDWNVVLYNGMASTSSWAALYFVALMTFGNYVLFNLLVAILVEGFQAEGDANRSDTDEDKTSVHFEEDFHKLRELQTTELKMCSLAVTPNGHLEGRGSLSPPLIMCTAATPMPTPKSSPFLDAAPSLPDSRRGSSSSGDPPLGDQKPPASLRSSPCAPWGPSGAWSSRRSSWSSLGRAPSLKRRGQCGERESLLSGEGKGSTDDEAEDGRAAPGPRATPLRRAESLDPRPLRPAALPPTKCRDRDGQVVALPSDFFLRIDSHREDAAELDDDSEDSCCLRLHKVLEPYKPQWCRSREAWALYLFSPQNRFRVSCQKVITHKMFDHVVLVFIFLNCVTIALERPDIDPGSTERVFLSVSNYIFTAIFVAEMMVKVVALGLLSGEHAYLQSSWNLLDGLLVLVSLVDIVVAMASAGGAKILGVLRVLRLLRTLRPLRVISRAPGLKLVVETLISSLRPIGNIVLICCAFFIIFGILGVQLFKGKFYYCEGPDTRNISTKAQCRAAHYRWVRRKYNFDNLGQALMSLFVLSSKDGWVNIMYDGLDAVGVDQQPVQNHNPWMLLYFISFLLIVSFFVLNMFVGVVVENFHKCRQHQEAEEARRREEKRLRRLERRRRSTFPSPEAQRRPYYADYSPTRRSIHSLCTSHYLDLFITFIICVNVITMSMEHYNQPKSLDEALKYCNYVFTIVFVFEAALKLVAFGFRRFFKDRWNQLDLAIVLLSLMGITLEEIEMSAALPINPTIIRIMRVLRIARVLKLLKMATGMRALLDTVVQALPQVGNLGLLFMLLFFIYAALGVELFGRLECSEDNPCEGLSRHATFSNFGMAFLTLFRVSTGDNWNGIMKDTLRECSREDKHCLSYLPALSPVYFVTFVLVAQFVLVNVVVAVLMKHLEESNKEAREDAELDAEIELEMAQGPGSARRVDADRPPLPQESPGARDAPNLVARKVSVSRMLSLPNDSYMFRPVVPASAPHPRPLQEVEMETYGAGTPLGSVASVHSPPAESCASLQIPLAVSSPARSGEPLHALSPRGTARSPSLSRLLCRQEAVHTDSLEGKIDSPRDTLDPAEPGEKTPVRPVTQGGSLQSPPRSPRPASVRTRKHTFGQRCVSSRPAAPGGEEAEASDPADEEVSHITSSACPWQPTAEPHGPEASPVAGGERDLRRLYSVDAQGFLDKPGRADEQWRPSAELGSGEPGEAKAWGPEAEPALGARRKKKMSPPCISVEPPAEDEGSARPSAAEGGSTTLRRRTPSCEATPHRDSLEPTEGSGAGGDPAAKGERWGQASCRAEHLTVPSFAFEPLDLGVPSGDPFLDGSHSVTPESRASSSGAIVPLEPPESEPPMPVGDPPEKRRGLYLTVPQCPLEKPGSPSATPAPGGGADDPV
T5 sequence (P11940 whole entry, the tested form may be a part): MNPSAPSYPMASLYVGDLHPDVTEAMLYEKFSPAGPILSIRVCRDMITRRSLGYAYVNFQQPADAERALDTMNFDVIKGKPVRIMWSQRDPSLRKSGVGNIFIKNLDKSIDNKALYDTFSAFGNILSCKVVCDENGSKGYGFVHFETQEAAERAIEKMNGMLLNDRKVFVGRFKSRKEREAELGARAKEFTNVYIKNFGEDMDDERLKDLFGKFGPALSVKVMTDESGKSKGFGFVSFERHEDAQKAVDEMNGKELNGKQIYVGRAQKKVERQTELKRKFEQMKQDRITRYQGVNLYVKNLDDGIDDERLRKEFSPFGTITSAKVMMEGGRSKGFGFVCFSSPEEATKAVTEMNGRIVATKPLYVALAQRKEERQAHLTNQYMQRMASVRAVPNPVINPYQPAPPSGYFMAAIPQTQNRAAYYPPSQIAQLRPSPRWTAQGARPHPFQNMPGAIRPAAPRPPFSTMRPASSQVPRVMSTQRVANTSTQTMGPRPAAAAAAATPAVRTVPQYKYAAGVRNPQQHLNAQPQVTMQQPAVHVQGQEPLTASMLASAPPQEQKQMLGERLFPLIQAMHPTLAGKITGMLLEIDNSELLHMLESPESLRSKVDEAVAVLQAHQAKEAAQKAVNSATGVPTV
Chain of DNA dC->dU-editing enzyme APOBEC-3A (P31941 whole entry): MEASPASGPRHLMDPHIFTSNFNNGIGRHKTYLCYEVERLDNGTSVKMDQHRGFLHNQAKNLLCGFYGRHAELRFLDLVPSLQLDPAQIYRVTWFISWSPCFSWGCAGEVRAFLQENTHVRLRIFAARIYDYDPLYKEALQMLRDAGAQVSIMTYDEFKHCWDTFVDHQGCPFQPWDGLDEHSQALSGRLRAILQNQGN
Chain of DNA dC->dU-editing enzyme APOBEC-3G (Q9HC16 whole entry): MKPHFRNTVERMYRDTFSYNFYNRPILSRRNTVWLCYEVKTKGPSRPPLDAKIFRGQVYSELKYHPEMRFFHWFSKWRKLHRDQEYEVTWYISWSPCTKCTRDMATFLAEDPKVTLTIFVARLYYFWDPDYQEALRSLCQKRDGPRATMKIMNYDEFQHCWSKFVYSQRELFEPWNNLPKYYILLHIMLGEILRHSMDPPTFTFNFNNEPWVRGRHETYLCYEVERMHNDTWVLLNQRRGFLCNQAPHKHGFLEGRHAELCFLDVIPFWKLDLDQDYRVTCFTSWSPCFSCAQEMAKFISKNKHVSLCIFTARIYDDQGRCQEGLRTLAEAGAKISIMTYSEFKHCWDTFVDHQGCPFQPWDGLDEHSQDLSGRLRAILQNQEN

SMILES: CCCCCC(O)CCc1nnc(S)n1-c1ccccc1 (configuration not stated)
- IC50 [1]: 6.33 µM (active)
- IC50 [2]: > 100 µM (inactive)

SMILES: COc1cc(NC(=O)COc2ccc(-n3cnnn3)cc2)c(OC)cc1Cl
- IC50 (Estrogen receptor): 8.31 µM (active)

SMILES: O=C(Nc1cc[n+](-c2nc3ccccc3nc2[N-]S(=O)(=O)c2ccc(Cl)cc2)cc1)c1cccs1
- EC50 [3]: > 99 µM (inactive)
- EC50 [4]: > 99 µM (inactive)

SMILES: CCN1CCN(Cc2ccc(NC(=O)Nc3ccc(OC)cc3)cc2)CC1
- IC50 (Leucine aminopeptidase): 25.1 µM (active)

SMILES: O=C(O)CCCNC(=O)/C(=C\C=C\c1ccccc1)NC(=O)c1ccccc1Cl
- IC50 (Leucine aminopeptidase): 86.8 µM (active)

SMILES: FC(F)(F)c1nc(N2CCCC2)ncc1-c1nnnn1-c1ccc(Cl)cc1
- EC50 [5]: 14.6 µM (active)

SMILES: COc1ccc(-n2c(SCC(=O)Nc3ccc4c(c3)OCO4)nnc2C(C)N2CCCCC2)cc1 (configuration not stated)
- IC50 (Estrogen receptor): > 50 µM (not active)

SMILES: O=C(OCCNc1ccc(C(F)(F)F)cc1[N+](=O)[O-])c1cc2ccccc2oc1=O
- EC50 [3]: 27.7 µM (inactive)
- EC50 [4]: 89.7 µM (inactive)

SMILES: O=C(NN1C(=O)c2ccccc2NC1c1ccccn1)c1ccccc1 (configuration not stated)
- IC50 (Aminopeptidase N): 81.1 µM (active)

SMILES: COc1ccc(N2C(=O)CC(Sc3n[nH]c(-c4ccccc4)n3)C2=O)cc1 (configuration not stated)
- IC50 [1]: 14.9 µM (active)
- IC50 [2]: > 100 µM (inactive)

SMILES: Cc1ccc(NC(=O)CC2SC3=NCCN3C2=O)cc1 (configuration not stated)
- IC50 [6]: > 66 µM (inactive)
- IC50 [7]: > 66 µM (inactive)

SMILES: NC(=O)CSc1nnc(-c2cc(-c3cccs3)nc3ccccc23)o1
- EC50 [3]: > 99 µM (inactive)
- EC50 [4]: > 99 µM (inactive)

SMILES: O=C(O)c1cccc(S(=O)(=O)Nc2ccc(O)cc2Sc2nc3ccccc3s2)c1
- IC50 (Leucine aminopeptidase): 9.02 µM (active)

SMILES: O=C(c1ccc([N+](=O)[O-])cc1)N1CCC(Cc2ccccc2)CC1
- IC50 (Fatty acid synthase [8]): 10.9 µM (active)
- IC50 (Fatty acid synthase [9]): 8.61 µM (active)

SMILES: Cc1ccccc1NC(=O)N1CCCC(c2nc(-c3ccc(C(C)C)cc3)no2)C1 (configuration not stated)
- EC50 [10]: 0.157 µM (active)
- EC50 [5]: 8.11 µM (active)
- EC50 [11]: 5.18 µM (active)
- EC50 (H4): 23.1 µM (active)

SMILES: CCN1C(=O)/C(=C/NNC(=O)c2ccncc2)C(=O)NC1=S
- IC50 (Nonstructural protein 1): 13.3 µM (active)
- IC50 (Aminopeptidase N): 85.1 µM (active)
